Laboratory results from US9289402B2, “Metal entrapped bioactive composites” (YISSUM RESEARCH DEVELOPMENT COMPANY OF THE HEBREW …, priority 2010, dated 2016).

Legend:
[1] = test system: Escherichia coli strain MG1655; test: Bactericidal kinetic test towards E. coli MG1655; assay type: cell-based; details: HEPES buffer 0.04 M pH 7.4, 26 °C, ca. 10^6 CFU/ml, concentrations of Table 1 (composite 50.0 ppm, AgNO3 0.1 ppm, CHD 0.75 ppm)
Protocol: A wild-type Escherichia coli strain MG1655 was used as a target organism to evaluate the bactericidal efficacy of the active ingredients i.e. CHD, metallic and ionic Ag and the CHD@Ag composite. Bacteria were maintained on MacConkey agar plates at […]. Prior to each experiment, an overnight culture was prepared by seeding single colonies into 30 ml of Luria Bertani (LB) broth at 37° C. with shaking. This overnight culture was then washed three times by centrifugation (10 min, 4850 rpm, at 25° C.) and resuspended in HEPES buffer (0.04M, pH 7.4). The resulting washed pellet was resuspended in HEPES and brought to an optical density (OD590) of 0.3 which corresponds to ca. 10^8 CFU/ml. Enumeration of bacteria was performed by serial dilution and plating via the pour-plate technique. The inoculated plates were incubated at 37° C. for 24 h and bacterial concentrations were determined by enumerating the resulting CFUs. The bactericidal kinetic tests were carried out in five acid-washed 500 ml Erlenmeyer flasks filled with 200 ml HEPES buffer. The flasks were capped with dense paper caps to allow oxygen supply. Typically, the active ingredients at the desired concentrations and combinations were added first and then 2.0 ml of the E. coli suspension was added to final concentration of ca. 10^6 CFU/ml. The active ingredients included one of the following: CHD@Ag composite, MeOH-extracted composite, AgNO3 solution, CHD solution and combinations thereof in final concentrations and the amounts which are summarized in Table 1. [table] The vessels were kept in an incubated shaker at 26° C. under dark conditions. The disinfection kinetics were followed by sequentially sampling 1.0 ml aliquots form the vessels at the designated times. These samples were neutralized by dilution (1:1) with a neutralizing solution (0.2% w/w sodium thioglycolate, 1.9% w/w sodium thiosulphate, 1% w/w Tween 80, 1.4% w/w lecithin) for 5 min. The efficiency of this neutralization procedure was validated in separate control experiments. […] The plates were incubated at 37° C. for 24 h and bacterial colonies were counted. […]

P. aeruginosa PU21 = test: Bactericidal kinetic test towards P. aeruginosa PU21; assay type: cell-based, Pseudomonas aeruginosa; details: FIG. 8

SMILES | biocidal activity towards E. coli MG1655 [1] | bactericidal effect towards P. aeruginosa PU21 (P. aeruginosa PU21) | biocidal activity towards E. coli MG1655 ([1]; listed as CHD solution)
O=[N+]([O-])[O-].[Ag+] [Ag^+, AgNO3] | no biocidal activity |  | 
N=C(NCCCCCCNC(=N)NC(=N)Nc1ccc(Cl)cc1)NC(=N)Nc1ccc(Cl)cc1.O=C(O)[C@H](O)[C@@H](O)[C@H](O)[C@H](O)CO.O=C(O)[C@H](O)[C@@H](O)[C@H](O)[C@H](O)CO [CHD, Chlorhexidine digluconate] | only slightly affected | weak bactericidal effect | only very weak biocidal activity
